Source: patent US11560391B2, “Sulfonylurea compounds as inhibitors of interleukin-1 activity” (Genentech, Inc., priority 2018, dated 2023)
Read-outs that look alike come from different tables or passages of the source.

Assays:
[1] = test system: TNFα; assay: TNFα levels of LPS and nigericin stimulated PBMCs (counter-screen); format: cell-based; details: Homo sapiens, PBMC
Procedure: (§1) Human peripheral blood mononuclear cells (PBMCs), consisting of lymphocytes (T, B and NK cells), monocytes and dendritic cells, are freshly isolated from human peripheral blood from healthy donors. Cells are obtained through an IRB approved donor program by iXCells Biotechnologies where all the donors are tested for bacterial and viral infections. Cells are purified from peripheral blood using ficoll gradient centrifugation.
(§2) Fresh or cryopreserved PMBCs are seeded in V-bottom 96-well plate at 0.5-1×10^5 cells per well and incubated overnight at 37° C. with 5% CO2 in RPMI 1640 medium with GlutaMAX supplement, 4.5 g/L D-glucose, 10% Fetal Bovine Serum (FBS), […] Sodium Pyruvate, 1% Penicillin/Streptomycin, 10 mM HEPES and 0.05 mM of […]. Freshly isolated or cryopreserved KCs cells are seeded in flat-bottom 96-well plates at 0.6-1.5×10^5 cells/well and incubated overnight at 37° C., 5% CO2 in RPMI 1640 Medium with GlutaMAX supplement, FBS, 1% Penicillin/Streptomycin and 10 mM HEPES. The following day, the cells are primed with 100 ng/mL of lipopolysaccharides (LPS; Sigma Aldrich) in FBS-free RPMI 1640 for 3 h. After the priming step, the media is removed and PBMCs are pre-incubated with serial concentrations of test compounds (0.00017-10 uM) or vehicle (DMSO) for 30 min in FBS-free media prior to addition of the NLRP3 activator. Cells are then stimulated with 10 μM Nigericin (Sigma Aldrich; InvivoGen) for 1.5 h. Plates were centrifuged at 1,500 rpm for 3 minutes to pellet cells and supernatant was transferred into new plates for subsequent experiments.
For ELISA assays cells are seeded into 96-well plates. Post study, supernatants are removed and the levels of mature IL-1β, IL18 and TNFα (Quantikine ELISA, R&D systems) are measured in cell conditioned media by ELISA according to manufacturer's instructions.
TNFα levels of LPS and nigericin stimulated cells are measured by HTRF assay (Cisbio, Bedford, Mass.). […] Measuring TNFalpha production also serves as a technical counter-screen to eliminate compounds that interfere with the HTRF reagents. Thus compounds that inhibit both IL-1β and TNFα levels are triaged for either being non-selective for inflammasome or interfering with the HTRF readout.

[2] = biological target: T1, NLRP3 inflammasome (Homo sapiens, UniProt Q96P20); assay: NLRP3 inflammasome activation assay in LPS-primed, nigericin-stimulated PBMCs, IL-1β release; format: cell-based; details: 10 μM nigericin
T1 construct: freshly isolated from human peripheral blood from healthy donors; StemCells Technologies; host or cells: primary human PBMCs
Procedure, shortened: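 Fresh or cryopreserved human PBMCs primed with 100 ng/mL LPS for 3 h, pre-incubated 30 min with compound (0.00017-10 uM, or 2-fold 20-point series from 40 μM), then stimulated with 10 μM nigericin for 1.5 h at 37 °C. Supernatant IL-1β measured by ELISA or by HTRF (665/620 ratio).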

[3] = test system: PBMCs; assay: CTG (CellTiter-Glo) viability assay of compound-treated LPS and nigericin stimulated PBMCs; format: cell-based, human; details: Homo sapiens, PBMC
Procedure: as §1, §2
Viability of compound treated cells is measured using CellTiter-Glo® assay (Promega, Madison, Wis.) that measures the ATP content of cells which is proportional to the number of live cells within a well. This is a counter-screen to establish that the reduction of IL-1β levels in LPS and nigericin stimulated and compound treated cells is not due to cytotoxicity, but rather through the inhibition of the inflammasome pathway. Compounds inhibiting NRLP3 inflammasome activation ultimately increase the viability of LPS and nigericin stimulated cells by blocking NLRP3 mediated pyroptosis that would otherwise lead to cell lysis.

[4] = test system: THP-1 ASC-GFP cells; assay: THP-1 ASC-GFP speck assay (NLRP3 inflammasome activation, nigericin); format: cell-based; details: THP1-ASC-GFP; PMA-differentiated, LPS primed, 10 μM nigericin
Procedure: THP-1 ASC-GFP cell line was purchased from Invivogen, San Diego, for infammasome activation assay. THP-1 ASC-GFP cells stably express a 37.6 kDa ASC::GFP fusion protein that enables monitoring of spec formation by microscopy after activation of NLRP3 dependent inflammasome pathway. Cells were maintained at a density of 600,000 cells/mL in growth media consisting of RPMI 1640, 2 mM L-glutamine, 25 mM HEPES and 10% heat inactivated fetal bovine serum at 37° C. and 5% CO2. Cells were passaged every 3-4 days and used for assays for up to 20 passages.
THP-1 ASC-GFP cells were collected by centrifuging cells at 800 RPM for 5 minutes. Cell culture supernatant was removed and cells were re-suspended in fresh media at density of 1×10^6 cells/mL in assay media consisting of RPMI 1640, 2 mM L-glutamine, 25 mM HEPES and 10% heat inactivated fetal bovine serum. Phorbol 12-myristate 13-acetate (PMA) (Invivogen,tlrl-pma) was added to the cell suspension at a final concentration of 500 ng/ml and mixed thoroughly. 40,000 cells were added per well of a 384 well plate and differentiated into macrophages overnight at 37° C. and 5% CO2. Cells were primed with 1 μg/mL of lipopolysaccharide (Invivogen Ultrapure lipopolysaccharide from E. coli, tlrl-3pelps) in assay media for 3 hours at 37° C. and 5% CO2. After priming, media was removed and THP-1 ASC-GFP cells were preincubated with serially diluted test compounds with starting concentration of 40 μM followed by 2-fold dilution for a 20-point curve or vehicle (DMSO) for 30 min in assay media at 37° C. and 5% CO2. Cells were then stimulated with 10 μM nigericin (Invivogen, tlrl-nig-5) for 90 min at 37° C. and 5% CO2 to activate NLRP3 dependent inflammasome pathway and spec formation. After stimulation, cells were fixed with 4.8% paraformaldehyde (Electron Microscopy Sciences #15710-S) and incubated at room temperature for 15 min. Cells were then washed 3-times with 100 μL of phosphate buffered saline and permeabilized in the presence of premeablization/block buffer for 20 min at room temperature. Cells were then washed 3-times with 100 μL phosphate buffered saline and incubated for 1 hr at room temperature in the presence of hoechst. After staining with Hoechst, cells were washed 3-times with 100 μL phosphate buffered saline and imaged for ASC spec formation.
THP-1 ASC-GFP cells were imaged in 488 and Hoechst channels. Hoechst channel was used for cell count and 488 channel was used to identify number of GFP ASC specks in imaged fields. Percentage of cells with a spec was calculated by dividing the number of GFP positive spots by total number of cells.

[5] = LPS and nigericin stimulated cells, read-out: TNFa pIC50 (converted)
[6] = LPS 100 ng/mL priming, read-out: IL-1B pIC50 (converted)
[7] = LPS and nigericin stimulated cells, read-out: CTG pIC50 (converted)
[8] = PBMC, LPS priming, read-out: PMBC IL-1β IC50

T1 sequence (Q96P20 whole entry): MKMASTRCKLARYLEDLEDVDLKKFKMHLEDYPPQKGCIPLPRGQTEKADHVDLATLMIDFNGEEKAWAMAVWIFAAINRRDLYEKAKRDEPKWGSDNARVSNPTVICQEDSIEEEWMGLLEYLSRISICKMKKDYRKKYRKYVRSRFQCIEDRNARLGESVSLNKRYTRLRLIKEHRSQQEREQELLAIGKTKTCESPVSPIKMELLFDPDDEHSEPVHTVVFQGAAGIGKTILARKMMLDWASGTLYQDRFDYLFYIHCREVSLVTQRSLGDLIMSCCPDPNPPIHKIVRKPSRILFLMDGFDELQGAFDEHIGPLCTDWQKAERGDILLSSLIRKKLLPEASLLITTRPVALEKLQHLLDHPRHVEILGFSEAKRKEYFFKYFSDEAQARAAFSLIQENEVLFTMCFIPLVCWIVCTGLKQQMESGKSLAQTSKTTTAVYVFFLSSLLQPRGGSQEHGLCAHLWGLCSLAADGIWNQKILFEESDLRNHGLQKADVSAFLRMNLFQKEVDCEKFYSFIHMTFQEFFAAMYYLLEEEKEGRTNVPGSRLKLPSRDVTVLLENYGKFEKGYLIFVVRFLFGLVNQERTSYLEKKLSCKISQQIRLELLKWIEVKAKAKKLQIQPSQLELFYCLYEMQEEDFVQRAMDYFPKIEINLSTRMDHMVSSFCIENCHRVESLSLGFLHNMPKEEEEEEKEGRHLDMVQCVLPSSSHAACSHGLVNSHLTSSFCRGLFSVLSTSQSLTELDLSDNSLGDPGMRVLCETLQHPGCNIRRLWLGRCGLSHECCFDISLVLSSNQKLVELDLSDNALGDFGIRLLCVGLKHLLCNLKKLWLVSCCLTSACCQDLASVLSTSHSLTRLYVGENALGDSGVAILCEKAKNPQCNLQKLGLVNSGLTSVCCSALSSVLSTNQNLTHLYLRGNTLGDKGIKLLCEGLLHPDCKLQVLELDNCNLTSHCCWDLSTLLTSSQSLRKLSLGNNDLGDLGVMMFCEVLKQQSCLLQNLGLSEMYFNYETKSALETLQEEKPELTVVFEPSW

| Structure (SMILES) | IC50 [2, 6] [µM] | IC50 [2, 8] [µM] | IC50 [4] [µM] | IC50 [1, 5] [µM] | IC50 [3, 7] [µM] | IC50 ([1]; read-out: PMBC TNFα IC50) [µM] | IC50 ([3]; read-out: PMBC CTG IC50) [µM] |
| --- | --- | --- | --- | --- | --- | --- | --- |
| CNc1cc(C(C)C)c(NC(=O)NS(=O)(=O)c2cnn3c2OCCC3)c(C(C)C)n1 [drawing 420] | 1 to 10 |  |  | > 10 | 0.1 to 1 |  |  |
| COc1cc(C(C)C)c(NC(=O)NS(=O)(=O)c2cnn3c2OCC(C)(C)C3)c(C(C)C)n1 [drawing 414] | 1 to 10 |  |  | > 10 | 1 to 10 |  |  |
| Cc1onc(-c2ccccc2)c1NC(=O)NS(=O)(=O)c1cnn2c1OCCC2 [Example 8, N-((5-methyl-3-phenylisoxazol-4-yl)carbamoyl)-6,7-dihydro-5H-pyrazolo[5,1-b][1,3]oxazine-3-sulfonamide] |  | > 10 | > 20 |  |  |  | > 10 |
| CC(C)c1cc(C(F)(F)F)nc(C(C)C)c1NC(=O)NS(=O)(=O)c1cnn2c1OCCC2 [drawing 421] | 0.1 to 1 |  |  | > 10 | < 0.1 |  |  |
| CC(C)c1cc(C#N)nc(C(C)C)c1NC(=O)NS(=O)(=O)c1cnn2c1OCCC2 [Example 49, N-((6-cyano-2,4-diisopropylpyridin-3-yl)carbamoyl)-6,7-dihydro-5H-pyrazolo[5,1-b][1,3]oxazine-3-sulfonamide] |  | 1.25 | 2.5 |  |  |  | 0.56 |
| COc1cc(C(C)C)c(NC(=O)NS(=O)(=O)c2cnn3c2OC[C@@H](N2CC(OC)C2)C3)c(C(C)C)n1 [Example 42a, Sodium (S)—N-((2,4-diisopropyl-6-methoxypyridin-3-yl)carbamoyl)-6-(3-methoxyazetidin-1-yl)-6,7-dihydro-5H-pyrazolo[5,1-b][1,3]oxazine-3-sulfonamide] |  | 0.12 | 1.1 |  |  |  | 0.24 |
| COc1cc(C(C)C)c(NC(=O)NS(=O)(=O)c2cnn3c2OCCC3)c(C(C)C)n1 [Example 30, N-((2,4-diisopropyl-6-methoxypyridin-3-yl)carbamoyl)-6,7-dihydro-5H-pyrazolo[5,1-b][1,3]oxazine-3-sulfonamide] |  | 0.85 | 1.8 |  |  |  | 0.73 |

The next lines start with results.

| IC50 [2, 6] [µM] | IC50 [2, 8] [µM] | IC50 [4] [µM] | Structure (SMILES) | IC50 [1, 5] [µM] | IC50 [3, 7] [µM] | IC50 ([1]; read-out: PMBC TNFα IC50) [µM] | IC50 ([3]; read-out: PMBC CTG IC50) [µM] |
| --- | --- | --- | --- | --- | --- | --- | --- |
| 1 to 10 |  |  | Cc1cc(C(C)C)c(NC(=O)NS(=O)(=O)c2cnn3c2OCCC3)c(C(C)C)n1 [drawing 415] | > 10 | 1 to 10 |  |  |
|  | > 10 |  | CC(C)NC(=O)NS(=O)(=O)c1cnn2c1OCC(CN)C2 (racemic) [Example 56, 6-(aminomethyl)-N-(isopropylcarbamoyl)-6,7-dihydro-5H-pyrazolo[5,1-b][1,3]oxazine-3-sulfonamide] |  |  | > 10 | > 10 |
|  | 0.37 | 0.68 | CN[C@@H]1COc2c(S(=O)(=O)NC(=O)Nc3c(C(C)C)cc(OC)nc3C(C)C)cnn2C1 [Example 41a, (S)—N-((2,4-diisopropyl-6-methoxypyridin-3-yl)carbamoyl)-6-(methylamino)-6,7-dihydro-5H-pyrazolo[5,1-b][1,3]oxazine-3-sulfonamide] |  |  |  | 0.013 |
|  | 2.81 | 4.7 | CCOc1cc(C(C)C)c(NC(=O)NS(=O)(=O)c2cnn3c2OCCC3)c(C(C)C)n1 [Example 50, N-((6-ethoxy-2,4-diisopropylpyridin-3-yl)carbamoyl)-6,7-dihydro-5H-pyrazolo[5,1-b][1,3]oxazine-3-sulfonamide] |  |  |  | 1.18 |
|  | 1.5 | 0.72 | COc1cc(C(C)C)c(NC(=O)NS(=O)(=O)c2cnn3c2OCC(CNC(C)=O)C3)c(C(C)C)n1 (racemic) [Example 40, N-((3-(N-((2,4-diisopropyl-6-methoxypyridin-3-yl)carbamoyl)sulfamoyl)-6,7-dihydro-5H-pyrazolo[5,1-b][1,3]oxazin-6-yl)methyl)acetamide] |  |  |  | 1.25 |
|  | 1.24 | 0.4 | CCn1nc(C(C)C)c(NC(=O)NS(=O)(=O)c2cnn3c2OC[C@@H](OC)C3)c1C(C)C [Example 39a, (S)—N-((1-ethyl-3,5-diisopropyl-1H-pyrazol-4-yl)carbamoyl)-6-methoxy-6,7-dihydro-5H-pyrazolo[5,1-b][1,3]oxazine-3-sulfonamide] |  |  |  | 0.97 |
